Reference: ChEMBL document CHEMBL1201862, “PubChem BioAssay data set” (2004)
Calls of active or inactive are those of the source. For most assays here, no stated cut-off is given here; in the data, actives have a measured EC50 and inactives only a lower limit.

How the values were obtained:
INS1 = experiment: INS-1E survival protection against cytokine death – cell-based, luminescence, retest, dose response (AID 449756); format: functional; conditions: Rattus norvegicus;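 further: cell death triggered by IL-1 beta plus TNF-alpha plus IFN-gamma mixture; protective hits raise ATP signal compared with cytokine alone wells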
[1] = biological target: T1, Corticotropin-releasing factor receptor 2/Corticotropin-releasing factor-binding protein (Homo sapiens, UniProt P24387+Q13324); experiment: Dose Response confirmation of uHTS hits for small molecule antagonists of the CRF-binding protein and CRF-R2 receptor complex.; format: functional; conditions: read-out: IC50_Mean
T1 sequence (Q13324 whole entry): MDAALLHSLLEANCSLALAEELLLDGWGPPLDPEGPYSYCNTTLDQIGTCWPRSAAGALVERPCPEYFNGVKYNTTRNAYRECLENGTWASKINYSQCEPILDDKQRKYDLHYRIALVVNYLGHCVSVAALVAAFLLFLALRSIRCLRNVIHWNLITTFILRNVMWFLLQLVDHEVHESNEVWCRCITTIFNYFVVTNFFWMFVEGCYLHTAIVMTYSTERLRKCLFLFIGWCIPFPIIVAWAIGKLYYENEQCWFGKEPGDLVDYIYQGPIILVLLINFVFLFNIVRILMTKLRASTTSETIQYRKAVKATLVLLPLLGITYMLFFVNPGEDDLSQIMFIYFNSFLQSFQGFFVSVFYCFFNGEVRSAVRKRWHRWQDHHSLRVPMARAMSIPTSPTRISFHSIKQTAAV
T1 sequence (P24387 whole entry): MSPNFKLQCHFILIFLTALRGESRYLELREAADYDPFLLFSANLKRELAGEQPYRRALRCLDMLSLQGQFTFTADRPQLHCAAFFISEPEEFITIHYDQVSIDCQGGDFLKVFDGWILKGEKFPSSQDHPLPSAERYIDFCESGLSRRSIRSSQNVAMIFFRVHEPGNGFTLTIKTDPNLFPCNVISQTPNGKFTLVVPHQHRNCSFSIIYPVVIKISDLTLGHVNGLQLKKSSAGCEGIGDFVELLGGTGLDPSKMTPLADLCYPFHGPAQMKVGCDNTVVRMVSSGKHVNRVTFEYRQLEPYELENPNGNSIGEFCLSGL

[2] = biological target: T1, Corticotropin-releasing factor receptor 2/Corticotropin-releasing factor-binding protein; experiment: activators of CRF receptor 2 with binding protein – uHTS hits, confirmation (AID 602473); format: functional; conditions: read-out: EC50_Mean
Protein RecA = biological target: T2, Protein RecA (Mycobacterium tuberculosis, UniProt P9WHJ3); experiment: Fluorescence Cell-Free Homogeneous Dose Retest to Identify Inhibitors of RecA-Intein Splicing Activity. [Related pubchem assays (depositor defined):AID2097, AID2223, AID489010, AID492950]; format: functional
T2 sequence (P9WHJ3 whole entry): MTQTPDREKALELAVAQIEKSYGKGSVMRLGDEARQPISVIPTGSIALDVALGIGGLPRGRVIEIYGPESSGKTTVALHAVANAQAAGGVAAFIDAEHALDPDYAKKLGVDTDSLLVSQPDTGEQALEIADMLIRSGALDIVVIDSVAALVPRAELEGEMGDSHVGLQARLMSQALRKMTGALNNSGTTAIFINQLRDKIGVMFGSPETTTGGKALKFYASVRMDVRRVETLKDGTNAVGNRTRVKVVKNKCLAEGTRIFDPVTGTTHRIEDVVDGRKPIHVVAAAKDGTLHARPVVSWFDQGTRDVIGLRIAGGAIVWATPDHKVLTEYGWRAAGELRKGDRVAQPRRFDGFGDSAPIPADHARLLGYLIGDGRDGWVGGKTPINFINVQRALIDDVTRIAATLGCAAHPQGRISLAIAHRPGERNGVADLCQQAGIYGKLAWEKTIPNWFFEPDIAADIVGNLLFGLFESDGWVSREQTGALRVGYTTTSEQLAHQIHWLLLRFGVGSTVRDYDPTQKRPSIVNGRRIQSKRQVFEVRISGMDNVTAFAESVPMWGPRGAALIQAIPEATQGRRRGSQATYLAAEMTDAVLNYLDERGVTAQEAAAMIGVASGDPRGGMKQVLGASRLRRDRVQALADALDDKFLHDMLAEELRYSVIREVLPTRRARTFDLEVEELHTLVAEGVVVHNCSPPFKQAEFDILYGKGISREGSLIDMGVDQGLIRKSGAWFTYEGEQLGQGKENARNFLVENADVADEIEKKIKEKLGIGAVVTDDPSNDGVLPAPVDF

[3] = biological target: T3, Replicative DNA helicase DnaB (Mycobacterium tuberculosis, UniProt P9WMR3); experiment: DnaB intein splicing inhibitors, dose response, biochemical, cell-free fluorescence (AID 449749); format: functional
T3 sequence (P9WMR3 whole entry): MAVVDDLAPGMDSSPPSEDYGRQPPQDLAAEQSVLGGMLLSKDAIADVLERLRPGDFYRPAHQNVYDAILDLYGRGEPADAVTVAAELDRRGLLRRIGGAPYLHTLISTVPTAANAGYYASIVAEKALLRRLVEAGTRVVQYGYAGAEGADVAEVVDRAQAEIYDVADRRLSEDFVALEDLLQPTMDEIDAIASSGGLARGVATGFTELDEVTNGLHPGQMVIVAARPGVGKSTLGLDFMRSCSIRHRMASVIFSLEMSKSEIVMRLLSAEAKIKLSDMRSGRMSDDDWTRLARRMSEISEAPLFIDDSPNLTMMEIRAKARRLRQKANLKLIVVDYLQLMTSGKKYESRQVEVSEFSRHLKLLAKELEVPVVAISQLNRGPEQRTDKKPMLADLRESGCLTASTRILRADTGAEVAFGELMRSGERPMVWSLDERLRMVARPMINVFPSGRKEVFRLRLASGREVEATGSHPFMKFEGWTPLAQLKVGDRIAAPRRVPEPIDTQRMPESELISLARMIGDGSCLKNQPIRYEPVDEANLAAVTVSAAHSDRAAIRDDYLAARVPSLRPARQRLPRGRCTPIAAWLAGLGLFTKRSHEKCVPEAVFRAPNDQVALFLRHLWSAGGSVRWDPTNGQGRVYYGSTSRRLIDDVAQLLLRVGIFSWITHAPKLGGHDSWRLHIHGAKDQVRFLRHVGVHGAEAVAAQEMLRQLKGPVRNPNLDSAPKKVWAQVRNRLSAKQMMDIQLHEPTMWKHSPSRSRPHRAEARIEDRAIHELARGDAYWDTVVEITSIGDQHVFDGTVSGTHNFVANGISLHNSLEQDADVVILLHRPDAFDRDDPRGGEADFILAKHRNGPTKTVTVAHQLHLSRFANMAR

[4] = NIH3T3 cell viability loss – ATP luminescence, mouse fibroblasts, counter-screen, dose response (AID 2010); format: functional, cell-based;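 further: cells exposed to compound for about 90 hours before reading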
[5] = Trypanosoma cruzi growth suppression in host cells – NIH3T3 host cells, beta-gal luminescence, confirmation (AID 2044); format: functional, cell-based;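 further: intracellular parasites grown in NIH/3T3 mouse fibroblasts as host cells; luminescent beta-galactosidase reporter signal from transgenic T. cruzi replicating inside host cells; inhibitors lower the luminescence signal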
[6] = Luminescence Cell-Based Dose Retest to Confirm Inhibitors of Cancer Stem Cells. [Related pubchem assays (depositor defined):AID2717, AID2721]; format: functional; conditions: Homo sapiens
[7] = luciferase reporter signal suppression in cells – H4 neuroglioma cells, luminescence, dose response (AID 1990); format: functional, cell-based
[8] = Luminescence Cell-Based Dose Response HTS to Identify Inhibitors of 5'UTR Stem-Loop Driven Prion Protein mRNA Translation in H4 Neuroglioblastoma Cells. [Related pubchem assays: 1827 (Project Summary), 1813 (Primary HTS)]; format: functional
[9] = alpha-synuclein stem-loop luciferase translation blockers – H4 neuroglioma cells, luminescence, confirmation (AID 1988); format: functional, cell-based
Streptokinase A = biological target: T4, Streptokinase A (Streptococcus pyogenes serotype M1, UniProt P10520); experiment: viability-normalized secreted streptokinase activity reduction – plasminogen activation absorbance, OD405, dose response (AID 1914); format: functional, Streptococcus pyogenes M1 GAS;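 further: secreted streptokinase activity via plasminogen activation per viability signal from cell pellet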
T4 sequence (P10520 whole entry): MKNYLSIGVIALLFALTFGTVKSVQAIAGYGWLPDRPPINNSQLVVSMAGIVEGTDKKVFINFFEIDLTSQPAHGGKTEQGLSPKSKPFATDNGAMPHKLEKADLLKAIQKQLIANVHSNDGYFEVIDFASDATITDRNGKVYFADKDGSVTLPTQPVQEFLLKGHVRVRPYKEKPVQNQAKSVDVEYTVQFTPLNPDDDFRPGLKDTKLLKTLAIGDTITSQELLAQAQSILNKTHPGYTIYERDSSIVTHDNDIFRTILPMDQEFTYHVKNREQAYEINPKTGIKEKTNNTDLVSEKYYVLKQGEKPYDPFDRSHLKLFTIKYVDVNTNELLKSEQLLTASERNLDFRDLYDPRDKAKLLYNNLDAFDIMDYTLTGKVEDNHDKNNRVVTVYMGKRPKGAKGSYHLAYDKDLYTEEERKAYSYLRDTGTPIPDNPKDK

Streptococcus = experiment: GAS UMAA2166 growth inhibition – luminescence, BacTiterGlo, counter-screen for streptokinase expression inhibitor project, dose response (AID 1915); format: functional, organism-based;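 further: potency for reduction of bacterial viability or growth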
[10] = tested on: Streptococcus sp. 'group A'; experiment: Streptococcus pyogenes SK(-)GAS viability under kanamycin – luminescence, BacTiterGlo, confirmation, counter-screen for streptokinase expression inhibitor project, dose response (AID 1900); format: functional, organism-based
Cytochrome P450 2D6 = Cytochrome P450 2D6 (Homo sapiens, UniProt P10635);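 further: CYP2D6 member of a cytochrome P450 panel assay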
Chain of Cytochrome P450 2D6 (P10635 whole entry): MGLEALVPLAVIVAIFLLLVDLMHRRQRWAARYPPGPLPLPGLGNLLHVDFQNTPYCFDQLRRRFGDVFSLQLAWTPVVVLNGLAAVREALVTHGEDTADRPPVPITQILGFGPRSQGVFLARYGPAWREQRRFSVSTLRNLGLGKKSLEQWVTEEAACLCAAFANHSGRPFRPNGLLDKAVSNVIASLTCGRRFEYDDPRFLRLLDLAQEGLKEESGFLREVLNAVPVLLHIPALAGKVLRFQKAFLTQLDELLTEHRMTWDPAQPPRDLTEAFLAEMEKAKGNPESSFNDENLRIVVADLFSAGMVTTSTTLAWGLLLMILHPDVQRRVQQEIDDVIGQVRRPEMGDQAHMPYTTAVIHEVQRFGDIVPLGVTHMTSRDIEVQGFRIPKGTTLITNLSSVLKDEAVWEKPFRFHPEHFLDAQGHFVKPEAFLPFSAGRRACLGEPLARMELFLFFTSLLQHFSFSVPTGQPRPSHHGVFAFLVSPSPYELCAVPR

Cn1cccc1C1C=C(c2ccc(C(C)(C)C)cc2)Nc2ncnn21 (stereo not drawn)
AC50 (INS1): 3.45 µM (active)

Cn1c(=O)n(C)c2cc(S(=O)(=O)Nc3cc(Cl)ccc3O)ccc21
IC50 [1]: > 47.1 µM (inactive) | EC50 [2]: > 53 µM (inactive)

COC(=O)c1c(NC(=O)/C=C/C(=O)O)sc(C)c1-c1ccc(C)cc1
EC50 (Protein RecA): 11.1 µM (active) | AC50 [3]: 33.7 µM (active)

CCOC(=O)c1c(NC(=O)CCl)sc(C(=O)N(CC)CC)c1C
EC50 (Protein RecA): 43.6 µM (active) | AC50 [3]: 2.19 µM (active)

Cc1ccc(NC(=O)Nc2cccc([N+](=O)[O-])c2)cc1F
EC50 [4]: > 60 µM (not active) | EC50 [5]: 2.49 µM (active) | AC50 (INS1): 6.65 µM (active)

O=c1cc(CNc2cc(C(F)(F)F)cc(C(F)(F)F)c2)nc2sccn12
AC50 [6]: 1.99 µM (active) | EC50 [7]: 17.5 µM (active) | EC50 [8]: 39.2 µM (active) | EC50 [9]: > 120 µM (not active)

CCN(CC)C(=O)CSc1ncnc2c1cnn2-c1ccccc1
IC50 [1]: > 47.1 µM (inactive) | EC50 [2]: > 53 µM (inactive)

COC(=O)c1ccc(NC(=O)c2cccnc2)cc1
AC50 (INS1): 5.28 µM (active)

Cc1ccc(CN2CC(C(=O)NCCCSc3ccccc3)CC2=O)cc1 (stereo not drawn)
IC50 [1]: > 47.1 µM (inactive) | EC50 [2]: > 53 µM (inactive)

CC(CNC(=O)c1ccc(OC2CCN(Cc3ccccn3)CC2)cc1)Oc1cccnc1 (stereo not drawn)
AC50 (INS1): 5.59 µM (active)

Cc1ccc(N2C(=O)CC(=O)NC2=O)c(C)c1
IC50 [1]: > 47.1 µM (inactive) | EC50 [2]: > 53 µM (inactive)

CCN=C(S)Nc1cc(OC)c(NC(=O)c2ccco2)cc1OC
IC50 [1]: > 47.1 µM (inactive) | EC50 [2]: > 53 µM (inactive)

O=C(CCC(=O)Nc1ccc(Br)cc1)N/N=C/c1ccccc1O
EC50 (Streptokinase A): > 150 µM (not active) | EC50 [7]: 12.6 µM (active) | EC50 (Streptococcus): 14.3 µM (active) | EC50 [8]: 33.8 µM (active) | AC50 (INS1): 3.65 µM (active) | EC50 [9]: 8.55 µM (active) | EC50 [10]: 5.1 µM (active)

COC(=O)c1ccc(CNC(=O)COC(=O)CC23CC4CC(CC(Br)(C4)C2)C3)cc1
IC50 [1]: > 47.1 µM (inactive) | EC50 [2]: > 53 µM (inactive)

COC(=O)c1ccc(C(c2c(C)n[nH]c2O)c2c(C)n[nH]c2O)cc1
EC50 (Protein RecA): 1.94 µM (active) | AC50 [3]: 3.35 µM (active)

CCOC(=O)C(Cc1ccccc1)NC(=O)CCc1nnc2ccc(N3CCCC3)nn12 (stereo not drawn)
IC50 [1]: > 47.1 µM (inactive) | EC50 [2]: > 53 µM (inactive)

c1ccc(-c2ccc(C3CCCN3)cc2)cc1 (stereo not drawn)
EC50 (Protein RecA): > 380 µM (inactive) | AC50 [3]: > 380 µM (inactive)

Cc1ccc(NC(=O)c2c(C(F)(F)F)nn(C)c2SCc2cccc(C(F)(F)F)c2)cc1C
EC50 [4]: > 60 µM (inconclusive) | AC50 (Cytochrome P450 2D6): 14.1 µM (inconclusive) | EC50 [5]: 2.52 µM (active) | AC50 (INS1): 5.94 µM (active)

COc1ccc(OCc2cc(C(=O)NC3CCOC(C)(C)C3)no2)c2ccccc12 (stereo not drawn)
EC50 (Protein RecA): 4.57 µM (active) | AC50 [3]: 4.88 µM (active)

O=C(Nc1cccn(Cc2c(Cl)cccc2Cl)c1=O)c1c(Cl)cccc1Cl
IC50 [1]: 9.97 µM (active) | EC50 [2]: > 53 µM (inactive)

Oc1cc(-c2ccc(N3CCCCC3)nc2)cc2cccnc12
AC50 (INS1): 3.18 µM (active)

C=CCC[C@H](Cc1ccc(F)cc1)C(=O)O[C@H](CNC(=O)[C@@H](CC=C)CC(=O)N(CCO)Cc1ccccc1)c1ccccc1
AC50 [6]: 7.34 µM (active)

CN(Cc1ccccn1)C(=O)C1CCC(=O)N(Cc2cccc(C(F)(F)F)c2)C1 (stereo not drawn)
IC50 [1]: > 47.1 µM (inactive) | EC50 [2]: > 53 µM (inactive)

N#Cc1c(NC(=O)Cn2c(=O)oc3ccccc32)oc(-c2ccccc2)c1-c1ccccc1
AC50 [6]: 1.97 µM (active)

CCN(Cc1ccccc1)c1ccc(/C=N/NC(=S)NC(C)C)cc1
AC50 [6]: 31.1 µM (active)
